Source: PubChem BioAssay (NCI)
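In this assay, cells in 96-well plates receive the compound at five concentrations for 48 hours. Endpoints are linearly interpolated between the surrounding concentrations. GI50 = concentration required for 50% inhibition of growth. TGI denotes the concentration required for complete inhibition of growth.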

Tests used:
Experiment in all cases: NCI anticancer screen, dose series, 48 h
HL-60(TB) leukemia = system: HL-60(TB) leukemia
UO-31 renal = system: UO-31 renal
SNB-19 CNS = system: SNB-19 CNS
OVCAR-3 ovarian = system: OVCAR-3 ovarian
COLO 205 colon = system: COLO 205 colon
A549 NSCLC = system: A549 NSCLC
TK-10 renal = system: TK-10 renal
KM12 colon = system: KM12 colon
MDA-MB-435 = system: MDA-MB-435
PC-3 prostate = system: PC-3 prostate

How did the TGI (HL-60(TB) leukemia) turn out when `COC(=O)C(CC1=C(O)Nc2ccccc2N1)/C(=N/NC(N)=O)C(=O)Nc1ccccc1C` (configuration not stated) was run?
The TGI was over 100 µM.

And the TGI (UO-31 renal)?
Its TGI is over 100 µM.

And the TGI (SNB-19 CNS)?
The TGI was over 100 µM.

And the TGI (OVCAR-3 ovarian)?
Its TGI is over 100 µM.

What about the TGI (COLO 205 colon) of the same compound?
The TGI was over 100 µM.

What about the TGI (A549 NSCLC) of the same compound?
Its TGI is over 100 µM.

And the TGI (TK-10 renal)?
The TGI was over 100 µM.

What about the TGI (KM12 colon) of the same compound?
Its TGI is over 100 µM.

How did the TGI (UO-31 renal) turn out when `CN1CCc2[nH]nc(-c3n[nH]c4c3CN(C)CC4)c2C1` was run?
The TGI was over 100 µM.

What about the TGI (SNB-19 CNS) of the same compound?
The TGI was over 100 µM.

What about the TGI (MDA-MB-435) of the same compound?
The TGI was over 100 µM.

What about the TGI (OVCAR-3 ovarian) of the same compound?
The TGI was over 100 µM.

And the TGI (PC-3 prostate)?
The TGI was over 100 µM.

What about the TGI (COLO 205 colon) of the same compound?
The TGI was over 100 µM.

And the TGI (A549 NSCLC)?
Its TGI is over 100 µM.

And the TGI (TK-10 renal)?
The TGI was over 100 µM.

What about the TGI (KM12 colon) of the same compound?
The TGI was over 100 µM.

How did the GI50 (HL-60(TB) leukemia) turn out when `COc1ccc(C(=O)/C=C/c2cccc(Nc3ccnc4cc(Cl)ccc34)c2)cc1` was run?
Its GI50 is 2.98 µM.

What about the TGI (HL-60(TB) leukemia) of the same compound?
Its TGI is over 100 µM.

What about the GI50 (SNB-19 CNS) of the same compound?
Its GI50 is 2.26 µM.

And the TGI (SNB-19 CNS)?
Its TGI is over 100 µM.

And the GI50 (MDA-MB-435)?
The GI50 was 2.13 µM.

What about the TGI (MDA-MB-435) of the same compound?
The TGI was over 100 µM.

What about the GI50 (PC-3 prostate) of the same compound?
The GI50 was 2.51 µM.

And the TGI (PC-3 prostate)?
The TGI was over 100 µM.

What about the GI50 (COLO 205 colon) of the same compound?
The GI50 was 3.85 µM.

And the TGI (COLO 205 colon)?
The TGI was over 100 µM.

And the GI50 (A549 NSCLC)?
Its GI50 is 2.78 µM.

What about the TGI (A549 NSCLC) of the same compound?
The TGI was over 100 µM.

And the GI50 (TK-10 renal)?
The GI50 was 1.64 µM.

And the TGI (TK-10 renal)?
The TGI was 4.59 µM.

What about the GI50 (KM12 colon) of the same compound?
The GI50 was 2.45 µM.

And the TGI (KM12 colon)?
Its TGI is over 100 µM.

How did the TGI (UO-31 renal) turn out when `COc1cccc(NC(=O)CC(=O)N2N=C(N3c4ccccc4Sc4ccccc43)CC2c2ccccc2)c1` (configuration not stated) was run?
The TGI was over 100 µM.

And the TGI (SNB-19 CNS)?
The TGI was over 100 µM.

What about the TGI (OVCAR-3 ovarian) of the same compound?
The TGI was over 100 µM.

And the TGI (COLO 205 colon)?
Its TGI is over 100 µM.

And the TGI (A549 NSCLC)?
The TGI was over 100 µM.

And the TGI (TK-10 renal)?
Its TGI is over 100 µM.

And the TGI (KM12 colon)?
Its TGI is over 100 µM.

How did the GI50 (UO-31 renal) turn out when `Cn1cccc1-c1cc(-c2ccc(Br)cc2)[nH]c(=O)c1C#N` was run?
The GI50 was 69.1 µM.

What about the TGI (UO-31 renal) of the same compound?
The TGI was over 100 µM.

What about the GI50 (SNB-19 CNS) of the same compound?
Its GI50 is over 100 µM.

And the TGI (SNB-19 CNS)?
The TGI was over 100 µM.

What about the GI50 (MDA-MB-435) of the same compound?
Its GI50 is over 100 µM.

What about the TGI (MDA-MB-435) of the same compound?
The TGI was over 100 µM.

What about the GI50 (OVCAR-3 ovarian) of the same compound?
Its GI50 is 85.8 µM.

What about the TGI (OVCAR-3 ovarian) of the same compound?
The TGI was over 100 µM.

And the GI50 (PC-3 prostate)?
The GI50 was over 100 µM.

And the TGI (PC-3 prostate)?
The TGI was over 100 µM.

What about the GI50 (COLO 205 colon) of the same compound?
Its GI50 is over 100 µM.

What about the TGI (COLO 205 colon) of the same compound?
The TGI was over 100 µM.

What about the GI50 (A549 NSCLC) of the same compound?
The GI50 was over 100 µM.

And the TGI (A549 NSCLC)?
The TGI was over 100 µM.

And the GI50 (TK-10 renal)?
Its GI50 is over 100 µM.

What about the TGI (TK-10 renal) of the same compound?
Its TGI is over 100 µM.

What about the GI50 (KM12 colon) of the same compound?
Its GI50 is over 100 µM.

And the TGI (KM12 colon)?
Its TGI is over 100 µM.

Which TGI (HL-60(TB) leukemia) does the source give for `CCc1ccccc1NC(=O)/C(N=O)=C(/C)O` here?
The TGI was over 100 µM.

And the TGI (UO-31 renal)?
The TGI was over 100 µM.

What about the TGI (SNB-19 CNS) of the same compound?
Its TGI is over 100 µM.

And the TGI (OVCAR-3 ovarian)?
The TGI was over 100 µM.

And the TGI (COLO 205 colon)?
The TGI was over 100 µM.

What about the TGI (A549 NSCLC) of the same compound?
The TGI was over 100 µM.

And the TGI (TK-10 renal)?
Its TGI is over 100 µM.

And the TGI (KM12 colon)?
The TGI was over 100 µM.

With `CCOC(=O)c1cc2c(n1Cc1cc(OC)c(OC)c(OC)c1)-c1oncc1CCC2` as the compound, how does the GI50 (HL-60(TB) leukemia) read?
Its GI50 is 0.221 µM.

What about the TGI (HL-60(TB) leukemia) of the same compound?
Its TGI is 0.765 µM.

What about the GI50 (UO-31 renal) of the same compound?
The GI50 was 0.303 µM.

And the TGI (UO-31 renal)?
Its TGI is over 67.4 µM.

And the GI50 (SNB-19 CNS)?
Its GI50 is 0.604 µM.

What about the TGI (SNB-19 CNS) of the same compound?
The TGI was over 100 µM.

What about the GI50 (OVCAR-3 ovarian) of the same compound?
The GI50 was 0.0901 µM.

And the TGI (OVCAR-3 ovarian)?
The TGI was 0.399 µM.

And the GI50 (PC-3 prostate)?
The GI50 was 0.209 µM.

What about the TGI (PC-3 prostate) of the same compound?
The TGI was over 65.3 µM.

And the GI50 (COLO 205 colon)?
The GI50 was 0.109 µM.

What about the TGI (COLO 205 colon) of the same compound?
The TGI was 0.495 µM.

What about the GI50 (A549 NSCLC) of the same compound?
The GI50 was 0.234 µM.

And the TGI (A549 NSCLC)?
Its TGI is 65.4 µM.

And the GI50 (TK-10 renal)?
The GI50 was 64.9 µM.

And the TGI (TK-10 renal)?
Its TGI is over 100 µM.

What about the GI50 (KM12 colon) of the same compound?
Its GI50 is 0.0884 µM.

And the TGI (KM12 colon)?
The TGI was over 55.4 µM.

Which results are given for `Cn1cc(-c2csc(-c3cn(CCCN4CCCCC4)c4ccccc34)n2)c2cccnc21`?
GI50 (UO-31 renal): 1.51 µM; TGI (UO-31 renal): 2.93 µM; GI50 (SNB-19 CNS): 1.83 µM; TGI (SNB-19 CNS): 3.34 µM; GI50 (MDA-MB-435): 1.87 µM; TGI (MDA-MB-435): 3.47 µM; GI50 (OVCAR-3 ovarian): 1.7 µM; TGI (OVCAR-3 ovarian): 3.14 µM; GI50 (PC-3 prostate): 1.74 µM; TGI (PC-3 prostate): 3.3 µM; GI50 (COLO 205 colon): 1.82 µM; TGI (COLO 205 colon): 3.61 µM; GI50 (A549 NSCLC): 1.97 µM; TGI (A549 NSCLC): 3.6 µM; GI50 (TK-10 renal): 1.6 µM; TGI (TK-10 renal): 2.96 µM; GI50 (KM12 colon): 1.72 µM; TGI (KM12 colon): 3.25 µM
